Earlier results on one compound are cited in patent publication US20040198708A1, “Formulations of mometasone and a bronchodilator for pulmonary administration” (priority 2000, published 2004).

The structures appear in SMILES notation.

Data set [1] has as its system HPA axis. Particulars: mice, inhaled; Chapman et al. (1998).
Data set [2] relates to HPA axis. Particulars: humans, inhaled, dosages of up to 800 mcg daily; Bernstein et al. (1999).
For data set [3], the system named is patients with mild to moderate persistent asthma. Particulars: inhaled once daily, Nayak et al. (2000).

For the compound `C[C@@H]1C[C@H]2[C@@H]3CCC4=CC(=O)C=C[C@]4(C)[C@@]3(Cl)[C@@H](O)C[C@]2(C)[C@@]1(OC(=O)c1ccco1)C(=O)CCl` [mometasone furoate, (11β,16α)-9,21-dichloro-17-[(2-furanylcarbonyl)oxy]-11-hydroxy-16-methylpregna-1,4-diene-3,20-dione], the “Suppression of the HPA axis” value in the data set with HPA axis [1] is “has not been reported”. Besides, the HPA axis suppression result in the data set on HPA axis [2] is given as “did not cause HPA axis suppression”. The “Effectiveness in treating asthma” value in data set [3] is recorded as “effective”.
